Reference: patent publication US8492372B2, “Modulators of dopamine neurotransmission” (Integrated Research Laboratories Sweden AB, priority 2008, dated 2013)
Where a name gives a salt, the structure may show the parent alone.

How the values were obtained:
[1] = test system: DOPAC (3,4-dihydroxyphenylacetic acid) in the rat striatum; assay: Increase of DOPAC in the rat striatum after systemic administration (in vivo neurochemistry); settings: estimated ED50 on increase of DOPAC in rat striatum, curve fit, range in brackets covers 95% of fits; for ED50: Rattus norvegicus, sc; for ED50 DOPAC: s.c.
Description: After the behavioural activity sessions, the rats are decapitated and their brains rapidly taken out and put on an ice-cold petri-dish. The limbic forebrain, the striatum, the frontal cortex and the remaining hemispheral parts of each rat are dissected and frozen. Each brain part is subsequently analyzed with respect to its content of monoamines and their metabolites.
The monoamine transmitter substances (NA (noradrenaline), DA (dopamine), 5-HT (serotonin)) as well as their amine (NM (normethanephrine), 3-MT (3-methoxytyramine)) and acid (DOPAC (3,4-dihydroxyphenylacetic acid), 5-HIAA (5-hydroxyindoleacetic acid), HVA (homovanillic acid)) metabolites are quantified in brain tissue homogenates by HPLC separations and electrochemical detection.
The analytical method is based on two chromatographic separations dedicated for amines or acids. Two chromatographic systems share a common auto injector with a 10-port valve and two sample loops for simultaneous injection on the two systems. Both systems are equipped with a reverse phase column (Luna C18(2), dp 3 μm, 50*2 mm i.d., Phenomenex) and electrochemical detection is accomplished at two potentials on glassy carbon electrodes (MF-1000, Bioanalytical Systems, Inc.). The column effluent is passed via a T-connection to the detection cell or to a waste outlet. This is accomplished by two solenoid valves, which block either the waste or detector outlet. By preventing the chromatographic front from reaching the detector, better detection conditions are achieved. The aqueous mobile phase (0.4 ml/min) for the acid system contains citric acid 14 mM, sodium citrate 10 mM, MeOH 15% (v/v) and EDTA 0.1 mM. Detection potentials relative to Ag/AgCl reference are 0.45 and 0.60V. The aqueous ion pairing mobile phase (0.5 ml/min) for the amine system contains citric acid 5 mM, sodium citrate 10 mM, MeOH 9% (v/v), MeCN 10.5% v/v), decane sulfonic acid 0.45 mM, and EDTA 0.1 mM. Detection potentials relative to Ag/AgCl reference are 0.45 and 0.65V.
ED50 values for the increase of DOPAC in striatum are calculated by curve fitting.

[2] = test system: Locomotor activity in drug-naive rats; assay: Locomotor activity in drug-naive rats (in vivo behaviour); design: species or system rat; settings: recorded for 60 minutes immediately after drug administration
Description: Photobeam sensors are spaced 2.5 cm apart.

[3] = test system: amphetamine-induced hyper-locomotion; assay: Reduction of amphetamine-induced hyper-locomotion (in vivo behaviour); settings: range in brackets covers 95% of fits; for ED50: Rattus norvegicus, read-out: ED50 reduction of amphetamine-induced hyper-locomotion, rats pre-treated with d-amphetamine 1.5 mg/kg i.p., test compound s.c., curve fit

Molecule `CCCNCC1OCc2ccc(S(=O)(=O)C(F)(F)F)cc2O1` (centres unmarked) (as salt: hydrochloric acid salt) [Example 8, N-({7-[(TRIFLUOROMETHYL)SULFONYL]-4H-1,3-BENZODIOXIN-2-YL}METHYL)PROPAN-1-AMINE] has a melting point of 201 °C.
In the case of `CS(=O)(=O)c1ccc2c(c1)OC(CN1CCCCC1)OC2` (centres unmarked) [Example 21, 1-{[7-(METHYLSULFONYL)-4H-1,3-BENZODIOXIN-2-YL]METHYL}PIPERIDINE], the ED50 [1] is reported as 13 µmol/kg, the Locomotor activity ([2]; 3.7 μmol/kg) is reported as 8285 ± 721 counts/60 min ± SEM and the Locomotor activity ([2]; 11 μmol/kg) is reported as 6585 ± 707 counts/60 min ± SEM. For the same molecule, the Locomotor activity ([2]; 33 μmol/kg) was 4197 ± 923 counts/60 min ± SEM and the ED50 [3] was 14 µmol/kg.
For `CCCNCC1OCc2ccc(C(F)(F)F)cc2O1` (centres unmarked) [Example 1, N-{[7-(TRIFLUOROMETHYL)-4H-1,3-BENZODIOXIN-2-YL]METHYL}PROPAN-1-AMIN], the ED50 [1] was 17 µmol/kg, the Locomotor activity ([2]; 3.7 μmol/kg) was 8038 ± 1487 counts/60 min ± SEM and the Locomotor activity ([2]; 11 μmol/kg) was 7279 ± 968 counts/60 min ± SEM. The Locomotor activity ([2]; 33 μmol/kg) was 2682 ± 802 counts/60 min ± SEM and the ED50 [3] was 3.9 µmol/kg.
In the case of `CCCNCC1OCc2cc(F)c(Br)cc2O1` (centres unmarked) (as salt: hydrochloric acid salt) [Example 19, N-[(7-BROMO-6-FLUORO-4H-1,3-BENZODIOXIN-2-YL)METHYL]PROPAN-1-AMINE], the melting point is reported as 182 °C.
In the case of `CCCNCC1OCc2c(F)cc(S(C)(=O)=O)cc2O1` (centres unmarked) [Example 17, N-{[5-FLUORO-7-(METHYLSULFONYL)-4H-1,3-BENZODIOXIN-2-YL]METHYL}PROPAN-1-AMINE], the ED50 [1] is reported as 8.6 µmol/kg, the Locomotor activity ([2]; 3.7 μmol/kg) is reported as 10520 ± 1381 counts/60 min ± SEM and the Locomotor activity ([2]; 11 μmol/kg) is reported as 8330 ± 2194 counts/60 min ± SEM. For the same molecule, the Locomotor activity ([2]; 33 μmol/kg) was 3319 ± 140 counts/60 min ± SEM.
For `CCCNCC1OCc2c(F)cc(Br)cc2O1` (centres unmarked) [Example 16, N-[(7-BROMO-5-FLUORO-4H-1,3-BENZODIOXIN-2-YL)METHYL]PROPAN-1-AMINE], the ED50 [1] was 20 µmol/kg, the Locomotor activity ([2]; 3.7 μmol/kg) was 8637 ± 1217 counts/60 min ± SEM and the Locomotor activity ([2]; 11 μmol/kg) was 7537 ± 2127 counts/60 min ± SEM. For the same molecule, the Locomotor activity ([2]; 33 μmol/kg) was 7393 ± 1395 counts/60 min ± SEM.
Molecule `CCNCC1OCc2ccc(S(=O)(=O)C(F)(F)F)cc2O1` (centres unmarked) (as salt: hydrochloric acid salt) has a melting point of 169 °C.
For `CCCNCC1OCc2ccc(S(C)(=O)=O)cc2O1` (single isomer, unassigned; (+)) [Example 5, (+)-N-{[7-(METHYLSULFONYL)-4H-1,3-BENZODIOXIN-2-YL]METHYL}PROPAN-1-AMINE], the “ED50 DOPAC” value [1] was 12 (9.3-14) μmol/kg, the Locomotor activity ([2]; 3.7 μmol/kg) was 9173 ± 3160 counts/60 min ± SEM and the Locomotor activity ([2]; 11 μmol/kg) was 8274 ± 801 counts/60 min ± SEM. For the same molecule, the Locomotor activity ([2]; 33 μmol/kg) was 4854 ± 771 counts/60 min ± SEM and the ED50 [3] was 15 µmol/kg.
With `CCCNCC1OCc2c(F)cc(Br)cc2O1` (centres unmarked) (as salt: oxalic acid salt) [Example 16, N-[(7-BROMO-5-FLUORO-4H-1,3-BENZODIOXIN-2-YL)METHYL]PROPAN-1-AMINE] the melting point was 215 °C.
For `O=S(=O)(c1ccc2c(c1)OC(CN1CCCC1)OC2)C(F)(F)F` (centres unmarked) [Example 7, 1-({7-[(TRIFLUOROMETHYL)SULFONYL]-4H-1,3-BENZODIOXIN-2-YL}METHYL)PYRROLIDINE], the ED50 [1] was 48 µmol/kg, the Locomotor activity ([2]; 3.7 μmol/kg) was 9548 ± 1455 counts/60 min ± SEM and the Locomotor activity ([2]; 11 μmol/kg) was 7270 ± 278 counts/60 min ± SEM. For the same molecule, the Locomotor activity ([2]; 33 μmol/kg) was 11818 ± 2775 counts/60 min ± SEM and the ED50 [3] was 50 µmol/kg.
In the case of `CCCNCC1OCc2ccc(S(C)(=O)=O)cc2O1` (single isomer, unassigned; (-)) [Example 4, (−)-N-{[7-(METHYLSULFONYL)-4H-1,3-BENZODIOXIN-2-YL]METHYL}PROPAN-1-AMINE], the “ED50 DOPAC” value [1] is reported as 27 (23-31) μmol/kg, the Locomotor activity ([2]; 3.7 μmol/kg) is reported as 9158 ± 2094 counts/60 min ± SEM and the Locomotor activity ([2]; 11 μmol/kg) is reported as 11153 ± 1257 counts/60 min ± SEM. For the same molecule, the Locomotor activity ([2]; 33 μmol/kg) was 12588 ± 331 counts/60 min ± SEM and the “ED50 reduction of amphetamine-induced hyper-locomotion” value ([3]; rats pre-treated with d-amphetamine 1.5 mg/kg i.p., test compound s.c., curve fit) was 27 (19-35) μmol/kg.
In the case of `CCCNCC1OCc2ccc(S(=O)(=O)C(F)(F)F)cc2O1` (centres unmarked) [Example 8, N-({7-[(TRIFLUOROMETHYL)SULFONYL]-4H-1,3-BENZODIOXIN-2-YL}METHYL)PROPAN-1-AMINE], the ED50 [1] is reported as 7 µmol/kg, the Locomotor activity ([2]; 3.7 μmol/kg) is reported as 11601 ± 583 counts/60 min ± SEM and the Locomotor activity ([2]; 11 μmol/kg) is reported as 7064 ± 1032 counts/60 min ± SEM. The Locomotor activity ([2]; 33 μmol/kg) was 2641 ± 757 counts/60 min ± SEM and the ED50 [3] was 4.9 µmol/kg.
In the case of `CNCC1OCc2ccc(S(C)(=O)=O)cc2O1` (centres unmarked) (as salt: hydrochloric acid salt) [Example 12, N-METHYL-1-[7-(METHYLSULFONYL)-4H-1,3-BENZODIOXIN-2-YL]METHANAMINE], the melting point is reported as 225 °C.
In the case of `CCCNCC1OCc2cc(F)c(S(C)(=O)=O)cc2O1` (centres unmarked) [Example 20, N-{[6-FLUORO-7-(METHYLSULFONYL)-4H-1,3-BENZODIOXIN-2-YL]METHYL}PROPAN-1-AMINE], the ED50 [1] is reported as 11 µmol/kg, the Locomotor activity ([2]; 3.7 μmol/kg) is reported as 8830 ± 1277 counts/60 min ± SEM and the Locomotor activity ([2]; 11 μmol/kg) is reported as 10181 ± 1385 counts/60 min ± SEM. The Locomotor activity ([2]; 33 μmol/kg) was 5502 ± 474 counts/60 min ± SEM.
With `CCCNCC1OCc2ccc(S(C)(=O)=O)cc2O1` (centres unmarked) (as salt: hydrochloric acid salt) [Example 3, N-{[7-(METHYLSULFONYL)-4H-1,3-BENZODIOXIN-2-YL]METHYL}PROPAN-1-AMINE] the melting point was 213 °C.
In the case of `O=S(=O)(c1ccc2c(c1)OC(CN1CCCC1)OC2)C(F)(F)F` (centres unmarked) (as salt: fumaric acid salt) [Example 7, 1-({7-[(TRIFLUOROMETHYL)SULFONYL]-4H-1,3-BENZODIOXIN-2-YL}METHYL)PYRROLIDINE], the melting point is reported as 184 °C.
Work on `CCCNCC1OCc2ccc(C(F)(F)F)cc2O1` (centres unmarked) (as salt: hydrochloric acid salt) [Example 1, N-{[7-(TRIFLUOROMETHYL)-4H-1,3-BENZODIOXIN-2-YL]METHYL}PROPAN-1-AMIN] yielded a melting point of 203 °C.
